We go through one compound from patent US10980835B2, “Arsenic trioxide for treatment of PIN1-associated disorders” (Beth Israel Deaconess Medical Center, Inc., priority 2016, dated 2021).

One experiment concerns the target T1, Pin1 (Homo sapiens, UniProt Q13526).
T1 construct: followed by assaying Pin1 levels using immunoblotting; endogenous in cells; host or cells: SUM159, Hs578T, MDA-MB-231 (printed MBA-MB-231)
The experiment is described as follows: Pin1 protein levels in triple negative breast cancer cell lines by immunoblotting. The note with it: SUM159, Hs578T and MBA-MB-231 cells. Type of experiment: cell-based. From the text: FIG. 5 is a series of western blots and corresponding graphs of quantified protein expression depicting arsenic trioxide-induce Pin1 degradation in triple-negative breast cancer cell lines (SUM159, Hs578T, and MBA-MB-231).
FIG. 7 is a series of western blots and corresponding graphs of quantified protein expression levels showing that, in triple-negative breast cancer cell lines (SUM159 and Hs578T), arsenic trioxide-induced Pin1 degradation is blocked by the proteasome inhibitor, MG132.
FIG. 8 is a series of western blots and corresponding graphs of quantified protein expression levels showing that all-trans retinoic acid (ATRA) induces Pin1 degradation in triple-negative breast cancer cell lines (SUM159, Hs578T, and MBA-MB-231).
FIG. 9 is a series of western blots and corresponding graphs of quantified protein expression levels depicting decrease in Pin1 protein expression in triple-negative breast cancer cells (SUM159, Hs578T, and MBA-MB-231) following combination treatment with ATO and ATRA, as compared to treatment with either ATO or ATRA, alone. […]
Two different human triple negative breast cancer cell lines (SUM159 and Hs578T) were treated with different concentrations of ATO in the presence of the proteasome inhibitor MG132 or vehicle control DMSO. […] cells were collected and lysed and levels of Pin1 protein expression were quantified by immunoblotting. […]
Background: A western blot detects proteins with antibodies after separation by electrophoresis.

The test system of experiment [1] is TNBC 231 and 159 cells (breast TICs). The experiment is described as follows: Serial mammosphere formation assay. Conditions: serial propagation M1-M4. In kind it is cell-based, human. On the procedure:
FIG. 22C is a graph showing that ATO and ATRA co-treatment dramatically reduces tumor growth.
(§1) To examine the effects of ATO and ATRA on TICs in TNBC, 231 and 159 cells were treated with ATO (1 μM), ATRA (10 μM) or their combination, followed by assaying the breast TIC-enriched CD24-CD44+ or ALDH+ population using fluorescence-activated cell sorting (FACS). […] To examine the effects of ATO and ATRA on self-renewal of breast TICs, different TNBC cells were treated with ATO, ATRA or their combination, followed by a serial mammosphere formation assay.
Breast TICs are notoriously resistant to cytotoxic chemotherapy drugs such as taxol, which is commonly used to treat TNBC. While taxol treatment kills non-TIC cancer cells, it is ineffective against TICs, leading to TIC-enriched taxol-resistant cells. […] Thus, the combination of ATO and ATRA inhibits the growth of taxol-resistant TNBCs. This raised the question of whether the combination of ATO and ATRA could inhibit tumor initiation and growth of breast TICs in vivo. Accordingly, the effects of ATO and ATRA combination therapy on tumor initiation of TNBCs were assayed using a limiting dilution assay in mice, a standard approach to determine tumor initiation.

In a further experiment the test system is Hs578t and SUM159 cells. The experiment is described as follows: FACS quantification of ALDH+ cells. In kind it is cell-based, human. From the text:
FIG. 11 is a series of plots generated by fluorescence-activated cell sorting (FACS) and a corresponding graph that depicts the quantification of aldehyde dehydrogenase-positive (ALDH+) cells following treatment with ATRA, ATO, or a combination of ATRA and ATO. ALDH is tumor marker associated with breast cancer stem cells. The fraction of ALDH+ cells is decreased in Hs578T cells treated with ATRA+ATO, as compared to those treated with either ATRA or ATO, alone.
FIG. 12 is a series of plots generated by fluorescence-activated cell sorting (FACS) and a corresponding graph that depicts the quantification of aldehyde dehydrogenase-positive (ALDH+) cells following treatment with ATRA, ATO, or a combination of ATRA and ATO. ALDH is tumor marker associated with breast cancer stem cells. The fraction of ALDH+ cells is decreased in SUM159 cells treated with ATRA+ATO, as compared to those treated with either ATRA or ATO, alone.
Two different human triple negative breast cancer cell lines (Hs578t and SUM159) were treated with ATRA, ATO, or a combination of ATRA and ATO. Fluorescence-activated cell sorting (FACS) was used to quantify the proportion of aldehyde dehydrogenase-positive (ALDH+) cells following treatment. […]

Experiment [2] relates to MDA-MB-231 breast cancer cell line. The experiment is described as follows: Intracellular arsenic levels by ICP-Masspec. Type of experiment: cell-based, human. The note with it: MDA-MB-231 cells treated with ATRA, relative to control. On the procedure: FIGS. 16A-C are a series of graphs showing that ATRA increases intracellular arsenic concentration measured by ICP-Masspec.
Intracellular arsenic levels were measured by ICP-Masspec in breast cancer cells lines treated with either ATRA, shRNA knockdown of AQP9, or overexpression of AQP9.

A further experiment has as its system 231 and 159 cells. The experiment is described as follows: FACS of breast TIC-enriched CD24-CD44+ or ALDH+ population. In kind it is cell-based, human. On the procedure:
as §1

Experiment [3] concerns Human triple negative breast cancer MBA-MB-231 cells. The experiment is described as follows: Mouse orthotopic implantation model with MBA-MB-231 cells. Type of experiment: in vivo. Conditions: nude mice, ATO 2 mg/kg every other day, ATRA 5 mg 21 day pellets, 6 weeks. From the text:
FIG. 17A is a graph showing that combination treatment with ATRA and ATO results in greater tumor growth inhibition than treatment with either ATRA or ATO, alone. FIG. 17B is image of the excised tumors corresponding to FIG. 17A. FIG. 17C is a graph depicting tumor volume corresponding to the tumors pictured in FIG. 17B.
Human triple negative breast cancer MBA-MB-231 cells were orthotopically implanted into nude mice. A week after tumor growth was notable, mice were randomly grouped and treated with either ATO (2 mg/kg every other day), ATRA (5 mg 21 day slow releasing pellets), or a combination of both ATO (2 mg/kg every other day) and ATRA (5 mg 21 day slow releasing pellets). Tumor growth was measured weekly for 6 weeks.

Experiment [4] relates to triple negative breast cancer PDX. The experiment is described as follows: Triple negative breast cancer patient derived xenograft (PDX) mouse model. In kind it is in vivo. From the text: FIGS. 18A-D show the effect of ATO and ATRA on a triple negative breast cancer patient-derived xenograft (PDX) mouse model, where treatment was initiated two weeks after implantation. FIG. 18A is a graph showing that combination treatment with ATRA and ATO results in greater tumor growth inhibition than treatment with either ATRA or ATO, alone. FIG. 18B is image of the excised tumors corresponding to FIG. 18A. FIG. 18C is a graph depicting tumor volume corresponding to the tumors picture in FIG. 18B.
FIGS. 19A-C show the effect of ATO and ATRA on a triple negative breast cancer PDX mouse model, where treatment was initiated when the tumor volume reached to 250 mm^3. FIG. 19A is a graph showing that combination treatment with ATRA and ATO results in greater tumor growth inhibition than treatment with either ATRA or ATO, alone. FIG. 19B is image of the excised tumors corresponding to FIG. 19A. FIG. 19C is a graph depicting tumor volume corresponding to the tumors picture in FIG. 19B.
FIGS. 20A-D show the effect of ATO and ATRA on a triple negative breast cancer PDX mouse model, where treatment was initiated when the tumor volume reached to 300 mm^3. FIG. 20A is a graph showing that combination treatment with ATRA and ATO results in greater tumor growth inhibition than treatment with either ATRA or ATO, alone. FIG. 20B is image of the excised tumors corresponding to FIG. 20A. FIG. 20C is a graph depicting tumor volume corresponding to the tumors picture in FIG. 20B. FIG. 20D is a western blot depicting a decrease in Pin1 expression following treatment with either ATO, ATRA, or a combination of ATO and ATRA.
A PDX mouse model of triple negative breast cancer was treated with either ATO (2 mg/kg every other day), ATRA (5 mg 21 day slow releasing pellets), or a combination of both ATO (2 mg/kg every other day) and ATRA (5 mg 21 day slow releasing pellets). Treatment was initiated two weeks after implantation. Tumor growth was measured weekly for 7 weeks.
Furthermore, a PDX mouse model of triple negative breast cancer was treated with either ATO (2 mg/kg every other day), ATRA (5 mg 21 day slow releasing pellets), or a combination of both ATO (2 mg/kg every other day) and ATRA (5 mg 21 day slow releasing pellets). Treatment was initiated when the tumor volume reached 250 mm^3. Tumor growth was measured weekly for 6 weeks.
Finally, a PDX mouse model of triple negative breast cancer was treated with either ATO (2 mg/kg every other day), ATRA (5 mg 21 day slow releasing pellets), or a combination of both ATO (2 mg/kg every other day) and ATRA (5 mg 21 day slow releasing pellets). Treatment was initiated when the tumor volume reached 300 mm^3. Tumor growth was measured weekly for 6 weeks. […]
A general note: In xenograft studies the graft and the host belong to different species.

T1 sequence (Q13526 whole entry): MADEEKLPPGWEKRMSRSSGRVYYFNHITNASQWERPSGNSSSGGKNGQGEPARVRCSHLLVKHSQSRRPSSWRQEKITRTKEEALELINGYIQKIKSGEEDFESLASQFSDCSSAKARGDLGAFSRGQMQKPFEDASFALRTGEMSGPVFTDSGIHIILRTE

`CC1=C(/C=C/C(C)=C/C=C/C(C)=C/C(=O)O)C(C)(C)CCC1` [ATRA, all-trans retinoic acid]: the “Pin1 levels (degradation)” value on Pin1 was “induced Pin1 degradation in a dose-dependent manner”. In addition, the Mammosphere formation efficiency entry in experiment [1] was “strongly impaired mammosphere formation efficiency at M2-3”. Besides, in the experiment with Hs578t and SUM159 cells, the “Proportion of ALDH+ cells” value is “decreased the proportion of ALDH+ cells”. Besides, the Intracellular arsenic concentration result in experiment [2] is “increase intracellular arsenic concentrations relative to control”. The “Breast TIC-enriched CD24-CD44+ or ALDH+ population” value in the experiment on 231 and 159 cells is given as “significantly reduced breast TIC-enriched population”. Besides, the Tumor growth entry in experiment [3] is “inhibited tumor growth”; in experiment [4] (treatment initiated two weeks after implantation, 7 weeks), “inhibited tumor growth”; in experiment [4] (treatment initiated when tumor volume reached 250 mm^3, 6 weeks) it was “inhibited tumor growth”; in experiment [4] (treatment initiated when tumor volume reached 300 mm^3, 6 weeks), “inhibited tumor growth”. Besides, the “Pin1 levels in tumors” value in experiment [4] (treatment initiated at 300 mm^3) is listed as “decreased”.
